Marks after values point to notes of the source that are not given here.
Legend:
[1] = tested on: model rats of middle cerebral artery thrombosis (MCAT); experiment: Effects on neural symptoms of MCAT rats (behavioral score); assay type: in vivo, SD rats; details: for Scores 6 hours: 6 hours after operation; for Scores 6 hours / Scores 24 hours: full mark 4; for Scores 24 hours: 24 hours after operation
[2] = Stability to light (purity by HPLC); details: light test, 10 days
Experimental: Tests were conducted for 10 days in accordance with the testing method as described in Pharmacopoeia of P.R. China, 2000 ed., appendix XIX C of part two, "Guideline for testing the stability of medicament: method for testing stability to light". The purity was determined in accordance with the test described in Pharmacopoeia of P.R. China, 2000 ed., appendix VD of part two, by using HPLC method, C18 column, mobile phase of acetonitrile:0.02M sodium dihydrogen phosphate = 40:60, detecting wavelength of 230 nm, flow rate of 1 ml/min.

[3] = tested on: model rats of middle cerebral artery thrombosis (MCAT); experiment: Effects on cerebral infarct area of MCAT rats (TTC staining); assay type: in vivo, SD rats; details: for Cerebral infarct tissue weight/total brain weight: 24 hours after operation; for Inhibition (cerebral infarct): vs. model group
ICR mice = details: mouse, in vivo, po, 168 h
[4] = Thermal stability (purity by HPLC); details: 10 days at 60°C
Experimental: Tests were conducted for 10 days at 60°C in accordance with the testing method as described in Pharmacopoeia of P.R. China, 2000 ed., appendix XIX C of part two, "Guideline for testing the stability of medicament: method for testing thermal stability". The purity was determined in accordance with the test described in Pharmacopoeia of P.R. China, 2000 ed., appendix VD of part two, by using HPLC method, C18 column, mobile phase of acetonitrile:0.02M sodium dihydrogen phosphate = 40:60, detecting wavelength of 230 nm, flow rate of 1 ml/min.

[5] = tested on: thrombosis of artery-vein bypass in rats; experiment: Effects on thrombosis of artery-vein bypass in rats; assay type: in vivo, SD rats; details: for Dry-weight of thrombus / Wet-weight of thrombus: once per day for 3 days; for Inhibition (dry-weight of thrombus) / Inhibition (wet-weight of thrombus): vs. thrombus model group
in vivo = details: both, ICR, mouse, po
[6] = Stability to humidity (high humidity test, purity by HPLC); assay type: physicochemical; details: 10 days
[7] = 50 mg/kg by gavage, vs. model group
[8] = 100 mg/kg by gavage, vs. model group
[9] = 200 mg/kg by gavage, vs. model group

CCCCC(=O)c1ccccc1C(=O)O [Calcium 2-(α-n-pentanonyl)benzoate, calcium 2-(α-n-pentanonyl)benzoate]
Scores 6 hours ([1]; 50 mg/kg by gavage): 3.18±0.60 | Scores 24 hours ([1]; 50 mg/kg by gavage): 2.73±0.65**^,s | % inhibition at hour 24 [1, 7]: 25.00% | alleviation on neural symptoms at 24 hours after the operation (in words) ([1]; 50 mg/kg, vs. model group, P<0.01 or P<0.05): significantly alleviation | Scores 6 hours ([1]; 100 mg/kg by gavage): 3.40±0.52 | Scores 24 hours ([1]; 100 mg/kg by gavage): 2.90±0.57 | % inhibition at hour 24 [1, 8]: 22.25% | Scores 6 hours ([1]; 200 mg/kg by gavage): 3.27±0.79 | Scores 24 hours ([1]; 200 mg/kg by gavage): 2.45±0.82 | % inhibition at hour 24 [1, 9]: 34.32% | decomposed product (stability to light) [2]: no decomposed product | Cerebral infarct tissue weight/total brain weight ([3]; 50 mg/kg by gavage): 5.01±1.79 % | Inhibition (cerebral infarct) ([3]; 50 mg/kg by gavage): 32.39% | cerebral infarct compared with the model group (in words) ([3]; 50 mg/kg, P<0.05): significantly reduced | Cerebral infarct tissue weight/total brain weight ([3]; 100 mg/kg by gavage): 5.23±2.04 % | Inhibition (cerebral infarct) ([3]; 100 mg/kg by gavage): 34.13% | Cerebral infarct tissue weight/total brain weight ([3]; 200 mg/kg by gavage): 4.65±2.13 % | Inhibition (cerebral infarct) ([3]; 200 mg/kg by gavage): 38.90% | LD50 value (ICR mice): 2.6838 g/kg | decomposed product (thermal stability) [4]: no decomposed product | Dry-weight of thrombus ([5]; 50 mg/kg by gavage): 40.2 ± 18.0 mg | Wet-weight of thrombus ([5]; 50 mg/kg by gavage): 199.8 ± 30.4 mg | Inhibition (dry-weight of thrombus) ([5]; 50 mg/kg): 21.64% | Inhibition (wet-weight of thrombus) ([5]; 50 mg/kg): 22.92% | Dry-weight of thrombus ([5]; 100 mg/kg by gavage): 34.2 ± 13.1 mg | Wet-weight of thrombus ([5]; 100 mg/kg by gavage): 189.8 ± 52.3 mg | Inhibition (dry-weight of thrombus) ([5]; 100 mg/kg): 33.33% | Inhibition (wet-weight of thrombus) ([5]; 100 mg/kg): 26.77% | Dry-weight of thrombus ([5]; 200 mg/kg by gavage): 30.4 ± 13.9 mg | Wet-weight of thrombus ([5]; 200 mg/kg by gavage): 163.2 ± 64.4 mg | Inhibition (dry-weight of thrombus) ([5]; 200 mg/kg): 40.74% | Inhibition (wet-weight of thrombus) ([5]; 200 mg/kg): 37.04%

CCCCC(O)c1ccccc1C(=O)[O-].[K+] (stereo not drawn) [Potassium 2-(α-hydroxypentyl)benzoate]
Scores 6 hours ([1]; 50 mg/kg by gavage): 3.50±0.71 | Scores 24 hours ([1]; 50 mg/kg by gavage): 3.30±0.48 | % inhibition at hour 24 [1, 7]: 9.34% | Scores 6 hours ([1]; 100 mg/kg by gavage): 3.55±0.52 | Scores 24 hours ([1]; 100 mg/kg by gavage): 3.00±0.89 | % inhibition at hour 24 [1, 8]: 19.57% | Scores 6 hours ([1]; 200 mg/kg by gavage): 3.45±0.52 | Scores 24 hours ([1]; 200 mg/kg by gavage): 2.73±0.79 | % inhibition at hour 24 [1, 9]: 26.81% | LD50 at 7 days (in vivo): 1230 mg/kg | decomposition after absorbing moisture [6]: highly decomposed | Cerebral infarct tissue weight/total brain weight ([3]; 50 mg/kg by gavage): 6.16±2.46% | Inhibition (cerebral infarct) ([3]; 50 mg/kg by gavage): 16.87% | Cerebral infarct tissue weight/total brain weight ([3]; 100 mg/kg by gavage): 5.73±2.20 % | Inhibition (cerebral infarct) ([3]; 100 mg/kg by gavage): 27.83% | Cerebral infarct tissue weight/total brain weight ([3]; 200 mg/kg by gavage): 5.37±2.00 % | Inhibition (cerebral infarct) ([3]; 200 mg/kg by gavage): 29.43%

— patent EP1734031A1, “NOVEL 2-(ALPHA-N-PENTANONYL)BENZOETES, THEIR PREPARATION AND USE” (priority 2004, dated 2005)
